Values quoted from earlier work in patent US8697660B2, “Compounds and compositions for treating infection” (International Patent Holdings LLC, priority 2011, dated 2014).

Tested on: HIV-1

Q: Which “minimum inhibition concentration against HIV-1 in vitro” value does the source give for Prunellin here?
A: 2.2 µg/mL
